Ends that are not written are not given here.
Assays:
[1] = test system: FIA-CIA (bCII- and hFib-immunized mice which develop RA-like arthritis); settings: for overview of the paws: soft tissue enhancement and lymphocyte infiltration (HE sections): right hind paws; for arthritis score: score 0-16 per mouse
[2] = test system: anti-bCII or anti-hFib antibody titers; experiment: Measurement of mouse antibodies by ELISA in sera of treated FIA-CIA mice; format: in vivo; settings: sera taken on days 35 and 84, 1 mg/kg i.v. on days 14, 35 and 56
Experimental: Serum was collected on days 0, 14, 35 and 56 of the experiment via bleeding of the tail vein. Treatment with peptides 90091, 90578 (at a concentration of 1 mg/kg body weight) or 0.9% NaCl was applied intravenously on day 14, 35 and 56. Mice were randomly distributed to the three treatment groups. Treatment compounds were numbered 1, 2 and 3. To minimize confounders, each of the three mice per cage received a different treatment. All clinical and histological investigators were blinded to the treatment until data analysis was finished. For comparability between the therapy groups, all mice, including the CFA control mice, received a daily dose of 1 mg/kg Metacam® (meloxicam) from day 14 after the first immunization on until the end of the experiment. Mice were killed on day 84 of the experiments via intracardiac punction and blood withdrawal under ketamine/xylazine anaesthesia.
ELISA plates were coated with 100 μl per well of either 1 μg/ml bCII (Chondrex, Inc.) or 1 μg/ml hFib (Millipore/Calbiochem) or 1 μg/ml citrullinated hFib (Cayman) or CCP peptide at a concentration of 10 μg/ml in coating solution for 1 h. The CCP peptide we used for the selected CCP assay had the following sequence: HQCHQEST(cit)GRSRGRCGRSGS (SEQ ID NO: 2), with disulphide bonds spanning C3-C16.
All subsequent procedures were performed at room temperature (RT) and incubations were done on a microtiter plate shaker. […] After washing, the POD was detected by incubation with 100 μl/well of TMB substrate (Thermo Scientific, #34029) until a maximal optical density (OD) of about 1 to 2 was reached. Finally, the colorimetric reaction was stopped with 100 μl/well stopping solution (1M H2SO4) and the OD determined at a wavelength of 450 nm with a reference wavelength of 595 nm with the Tecan Infinite F 200 plate reader.
For assessment of antibodies, various antigens were coated on ELISA plates, and the sera of the mice were added. Binding of antibodies to the antigens was then measured by adding anti-mouse antibodies labelled with POD.

[3] = 1 mg/kg i.v. on days 14, 35 and 56
[4] = 1 mg/kg i.v. on days 14, 35 and 56, vs NaCl

| Compound | adverse effects ([1]; mouse, in vivo, 1 mg/kg) | antibody levels (anti-bCII, anti-hFib titers) [2] | ankle and tarsal joint histology (lymphocyte infiltrates, cartilage, pannus) [1, 3] | survival probability (Kaplan-Meier, log-rank) ([1]; 1 mg/kg i.v. on days 14, 35 and 56, mice killed when arthritis too severe) | overview of the paws: soft tissue enhancement and lymphocyte infiltration (HE sections) [1, 3] | arthritis score [1, 4] | antibody levels (anti-bCII, anti-hFib titers) ([2]; 1 mg/kg) | antibody levels (anti-bCII, anti-hFib titers) ([2]; listed as Peptide 905778, 1 mg/kg) | paw swelling of tarsal joints ([1]; 1 mg/kg i.v. on days 14, 35 and 56, caliper, vs NaCl) | average histology score ([1]; 1 mg/kg i.v. on days 14, 35 and 56, right hind paw HE sections at day 84, score max 15, N=8) |
| --- | --- | --- | --- | --- | --- | --- | --- | --- | --- | --- |
| Cc1cnc(NC(=O)C2=C(O)c3ccccc3S(=O)(=O)N2C)s1 [meloxicam, reference compound] | did not develop any adverse effects |  |  |  |  |  |  |  |  |  |
| peptide 90091: non-fructosylated derivative of peptide 90578, amino sequence GEPGIAGFKGEQGPK (SEQ ID No: 1) (CARBOHYD (9)..(9); listed as Bos taurus) [reference compound] |  | not Affected by Treatment | less lymphocyte infiltrates, but also pannus formation and cartilage erosion | did not reveal a significant difference between groups | severely enhanced | seemed to enhance arthritis, but not significantly |  |  |  |  |
| peptide 90578: GEPGIAGFKGEQGPK (SEQ ID NO: 1, bCII 256-270) with a D-fructosyl residue on the lysine at position 264 (position 9) (GEPGIAGFK(D‑fructosyl)GEQGPK; listed as Bos taurus) |  |  | the cartilage was intact and there were only a few lymphocyte infiltrates in the subchondral bone |  | less tissue enhancement and lymphocyte infiltration | tended to be less severe | this effect could not be found in the antibody levels | not Affected by Treatment | significantly lower swelling on days 49 and 56 | 3.9 |
